In this assay the target is Urease (Type III, from Canavalia ensiformis) (Canavalia ensiformis, UniProt P07374). As to the kind of experiment: ESI-MS (MRM) assay of urea depletion by purified urease, […] min pre-incubation with inhibitor. It is filed as biochemical.
Sequence of Urease (Type III, from Canavalia ensiformis) (P07374 whole entry): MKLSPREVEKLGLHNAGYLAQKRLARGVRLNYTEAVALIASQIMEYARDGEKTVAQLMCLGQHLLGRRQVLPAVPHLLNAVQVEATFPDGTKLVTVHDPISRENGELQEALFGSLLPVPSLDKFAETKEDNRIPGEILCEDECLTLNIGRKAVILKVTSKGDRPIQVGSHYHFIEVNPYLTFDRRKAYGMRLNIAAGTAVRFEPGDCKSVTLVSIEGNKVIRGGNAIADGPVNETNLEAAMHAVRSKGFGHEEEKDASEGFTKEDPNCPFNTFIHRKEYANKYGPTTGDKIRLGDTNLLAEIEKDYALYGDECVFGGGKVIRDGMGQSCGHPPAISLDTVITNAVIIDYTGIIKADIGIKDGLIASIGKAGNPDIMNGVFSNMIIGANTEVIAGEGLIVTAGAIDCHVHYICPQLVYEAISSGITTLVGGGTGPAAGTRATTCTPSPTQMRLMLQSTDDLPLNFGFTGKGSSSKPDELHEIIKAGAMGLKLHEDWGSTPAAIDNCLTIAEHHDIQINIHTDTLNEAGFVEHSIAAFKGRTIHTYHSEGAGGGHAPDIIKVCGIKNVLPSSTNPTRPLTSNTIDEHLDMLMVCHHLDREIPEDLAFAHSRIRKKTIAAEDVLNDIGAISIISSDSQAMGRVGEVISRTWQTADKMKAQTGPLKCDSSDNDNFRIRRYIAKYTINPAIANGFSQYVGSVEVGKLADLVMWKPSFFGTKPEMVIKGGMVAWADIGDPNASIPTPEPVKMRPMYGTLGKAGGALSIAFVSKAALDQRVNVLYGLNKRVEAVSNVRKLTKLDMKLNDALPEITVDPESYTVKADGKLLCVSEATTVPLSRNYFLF

For orientation: IC50 means the concentration that gives 50% inhibition. `CC(=O)NO` [AHA, acetohydroxamic acid] yielded an IC50 of 4.3 µM.

For the origin of these results see PMC6154344, “Hibiscus sabdariffa L. and Its Bioactive Constituents Exhibit Antiviral Activity against HSV-2 and Anti-Enzymatic Properties against Urease by an ESI-MS Based Assay” (Molecules : A Journal of Synthetic Chemistry and Natural …, 2017).
